Like-named read-outs stand apart in the source and are kept apart here.
How the values were obtained:
[1] = tested on: BK virus (BKV), Gardner strain; set-up: SI50 / SI90: unit not given beside the values
[2] = tested on: Influenza B/Florida/4/2006 (Yamagata)
[3] = tested on: Epstein-Barr virus (EBV), Akata strain; set-up: SI50 / SI90: unit not given beside the values
[4] = tested on: enterovirus-68 (EV-68, US/DY/14-18953)
[5] = tested on: respiratory syncytial virus (RSV, A2)
[6] = tested on: Tacaribe virus (TCRV, TRVL-11573); set-up: SI50 (SI): unit not given beside the values
[7] = tested on: SARS-CoV-2 (USA-WA1/2020)
[8] = tested on: dengue virus-2 (DENV-2, New Guinea C); conditions: SI = CC50/EC50
[9] = tested on: SARS-CoV-2 (USA-WA1/2020); assay type: cell-based; conditions: compound replenished daily, SI = CC50/EC50
[10] = tested on: influenza/California/07/2009 (H1N1)pdm09
[11] = tested on: MERS-CoV (EMC); assay type: cell-based; conditions: SI = CC50/EC50
[12] = tested on: HCMV AD169; test: HCMV plaque reduction assay, MRC-5 cells, strain AD169; assay type: cell-based, Human cytomegalovirus
[13] = tested on: BK virus (BKV), Gardner strain; test: microbe, parasite or virus in culture; conditions: Betapolyomavirus hominis, HFF
[14] = in vitro; conditions: rat
[15] = Rat plasma pharmacokinetics after IV infusion and PO dose; conditions: rats; 10 mg/kg IV 2-h infusion and PO
[16] = tested on: JC virus (JCV); test: microbe, parasite or virus in culture; conditions: JC polyomavirus, COS-7
[17] = Secondary JCV assay (qPCR), COS7 cells; conditions: African green monkey
[18] = tested on: JC virus (JCV); test: Secondary JCV assay (qPCR), COS7 cells
[19] = in vivo; conditions: male, Sprague-Dawley, rat; for AUC(0-inf): AUCInf; for AUC(0-t): AUClast
[20] = tested on: JC virus (JCV)
[21] = in vitro; conditions: African green monkey
[22] = tested on: HFF cells; test: Cell proliferation assay, human foreskin fibroblast (HFF) cells; assay type: cell-based; conditions: Homo sapiens, 72 h, cell number
[23] = in vitro; conditions: male, SD, rat, plasma
[24] = rat; for Peak area ratio, parent: 1 µM
[25] = in vitro; conditions: both, human, plasma
[26] = in vitro; conditions: human
[27] = MRC-5 cytotoxicity assay (MTS) and visual cytotoxicity; conditions: human
[28] = in vitro; conditions: human; remark: listed apart in the source
[29] = human
[30] = in vitro; conditions: human; remark: listed apart in the source

## CC(C)(C)C(=O)SCCOP(=O)(OCCSC(=O)C(C)(C)C)OCC1=CC(O)C(n2ccc(=O)[nH]c2=O)O1 (stereo not drawn) [SATE-ddhU]
[1]
  Activity: LO (key: NA (Not Active) SI50 = 0-3.9; LO (Slightly Active) SI50 = 4-9.9; MOD (Moderately Active) SI50 = 10-19.9; HI (Highly Active) SI50 = ≥20)
  CC50: > 150 µM
  EC50: 21.3 µM
  EC90: > 150 µM
  SI50: >7
  SI90: 1
[2]
  CC50: 560 µM
[2]; Influenza B, SI = CC50/EC50
  SI50 (SI): 0
[3]
  Activity: NA (key: NA (Not Active) SI50 = 0-3.9; MOD (Moderately Active) SI50 = 4-9.9; HI (Highly Active) SI50 = ≥10)
  CC50: 109 µM
  EC50: > 30 µM
  EC90: > 30 µM
  SI50: <4
  SI90: <4
[4]
  CC50: > 100 µM
[4]; EV-68, SI = CC50/EC50
  SI50 (SI): 0
[5]
  CC50: 180 µM
[5]; RSV, SI = CC50/EC50
  SI50 (SI): 0
[6]
  CC50: 170 µM
  SI50 (SI): 0
[7]
  CC50: 76 µM
[7]; SARS-CoV-2, SI = CC50/EC50
  SI50 (SI): 3.5
[8]
  SI50 (SI): 0
[9]
  SI50: >6.7
[10]
  CC50: 560 µM
[10]; Influenza(H1N1), SI = CC50/EC50
  SI50 (SI): 0
[11]
  SI50 (SI): 0

## CCCCCCCCCCCCCCCCOCCCOP(=O)(O)OCC1=C[C@H](O)[C@H](n2cnc3c(=O)[nH]c(N)nc32)O1 [AB23040]
[1]
  Activity: LO (key: NA (Not Active) SI50 = 0-3.9; LO (Slightly Active) SI50 = 4-9.9; MOD (Moderately Active) SI50 = 10-19.9; HI (Highly Active) SI50 = ≥20)
  activity against BK virus (in words): Low activity
[12]; Human betaherpesvirus 5, 144 h, hCMV AD169, MRC5 cells, plaque assay, 6-days duration
  EC50: 22.1 µM
[12]; MRC5 cells, AD169 strain
  antiviral activity against hCMV (in words): impressive antiviral activity
[12]; hCMV AD169, MRC5 cells
  Selectivity Index (CC50/EC50): >4.52
[13]
  EC50: 4.97 µM
  EC90: > 6 µM
[14]; s9
  microsomal CLint at 1 μM: 5.8 µL/min/mg
[14]; s9, T1/2
  half-life at 1 µM: 5.72 h
  half-life at 1 μM: 3.95 h
[15]
  tolerability / adverse events (AE): well-tolerated
[16]
  EC50: 8.85 µM
  EC90: 28 µM
[17]
  CC50 at 7 days: 31.3 µM
[18]; JC polyomavirus, COS-7, 168 h
  EC50: 0.37 µM
  EC90: 18.6 µM
[18]; secondary JCV assay, COS7 cells, class by SI50
  Activity: HI (HI (Highly Active) SI50 = ≥20)
[18]; secondary testing, COS7 cells
  antiviral activity against JCV (in words): high
[19]; iv, 10 mg/kg
  concentration at 0.5 h: 2.67 µM
  concentration at 1 h: 3.26 µM
  concentration at 2 h: 4.07 µM
  concentration at 4 h: 0.133 µM
  concentration at 8 h: 0.013 µM
  concentration at 24 h: 0.005 µM
  concentration at 72 h: 0.004 µM
  AUC(0-inf): 9.13 µM·h
  AUC(0-t): 9.12 µM·h
  Tmax: 2 h
[19]; iv, 10 mg/kg, CL
  clearance: 1.7 L/h/kg
[19]; iv, 10 mg/kg, Cmax
  Cmax: 3.65 µM
[19]; iv, 10 mg/kg, Terminal t1/2
  half-life: 37 h
[19]; iv, 10 mg/kg, t1/2
  half-life: 0.8 h
[19]; iv, t1/2 in plasma
  half-life: < 1 h
[19]; po, 10 mg/kg
  bioavailability: 4%
  concentration at 0.5 h: 0.038 µM
  concentration at 1 h: 0.058 µM
  concentration at 2 h: 0.077 µM
  concentration at 4 h: 0.0304 µM
  concentration at 8 h: 0.024 µM
  AUC(0-inf): 0.503 µM·h
  AUC(0-t): 0.387 µM·h
  Tmax: 2 h
[19]; po, 10 mg/kg, MRTInf
  MRT inf: 5.2 h
[20]
  Activity: LO (key: NA (Not Active) SI50 = 0-3.9; LO (Slightly Active) SI50 = 4-9.9; MOD (Moderately Active) SI50 = 10-19.9; HI (Highly Active) SI50 = ≥20)
  activity against JC virus (in words): Low activity
[21]
  CC50: 80.7 µM
[22]
  IC50: 65.9 µM
[23]
  half-life at 0.75 µM: > 9.32 h
  half-life at 0.75 μM: > 9.3 h
[24]; 1 μM
  CLhep: 1.12 L/h/kg
  Eh: 21%
[24]; 15 min
  Peak area ratio, parent: 1.16E−01
[24]; 60 min
  Peak area ratio, parent: 1.11E−01
[24]; s9
  hydrolytic stability in hepatic S9 (in words): least stable
[24]; s9, 1 μM
  T1/2: 3.95 h
[25]
  half-life at 0.75 µM: > 9.32 h
  half-life at 0.75 μM: > 9.3 h
[26]
  CC50: 25.1 µM
[27]
  CC50 at 6 days: > 100 µM
[28]; s9
  microsomal CLint at 1 μM: 7 µL/min/mg
[28]; s9, T1/2
  half-life at 1 µM: 4.69 h
  half-life at 1 μM: 3.31 h
[29]; 1 μM
  CLhep: 0.636 L/h/kg
  Eh: 24%
[29]; 15 min, 1 μM
  Peak area ratio, parent: 1.33E−01
[29]; 60 min, 1 μM
  Peak area ratio, parent: 1.05E−01
[29]; s9
  hydrolytic stability in hepatic S9 (in words): least stable
[29]; s9, 1 μM
  T1/2: 3.32 h
[30]
  CC50 at 7 d: 112 µM

— patent publication US12466849B2, “Anti-viral and anti-tumoral compounds” (YEDA RESEARCH AND DEVELOPMENT CO. LTD, priority 2020, dated 2025)
